For one assay, the system named is A549. Briefly: Cytotoxicity against human A549 cells assessed as cell growth inhibition measured after 48 hrs by MTT assay. To be noted: A549, 48 h. The assay is classed as functional, cell-based. On the technique in general: Tetrazolium dyes change colour on reduction, which living cells bring about.
The next assay deals with HepG2. Kind of assay: Cytotoxicity against human HepG2 cells assessed as cell growth inhibition measured after 48 hrs by MTT assay. It is filed as functional, cell-based. The settings on record: HepG2, 48 h.
A further assay deals with MCF7. Briefly: Cytotoxicity against human MCF7 cells assessed as cell growth inhibition measured after 48 hrs by MTT assay. It is filed as functional, cell-based. To be noted: MCF7, 48 h.
The target in another assay is Acetylcholinesterase (Electrophorus electricus, UniProt O42275). Kind of assay: Inhibition of electric eel AChE using acetylthiocholine iodide as substrate preincubated for 20 mins followed by substrate addition measured for 30 mins by Ellman's method. A general note: Ellman's reagent forms a yellow product with free thiols.

Where a name gives a salt, the structure may show the parent alone. A value given as a limit tells only on which side of the number the result lay.

As usually defined, the IC50 is the concentration needed to halve the response being measured.

Acetylcholinesterase, sequence (O42275 whole entry): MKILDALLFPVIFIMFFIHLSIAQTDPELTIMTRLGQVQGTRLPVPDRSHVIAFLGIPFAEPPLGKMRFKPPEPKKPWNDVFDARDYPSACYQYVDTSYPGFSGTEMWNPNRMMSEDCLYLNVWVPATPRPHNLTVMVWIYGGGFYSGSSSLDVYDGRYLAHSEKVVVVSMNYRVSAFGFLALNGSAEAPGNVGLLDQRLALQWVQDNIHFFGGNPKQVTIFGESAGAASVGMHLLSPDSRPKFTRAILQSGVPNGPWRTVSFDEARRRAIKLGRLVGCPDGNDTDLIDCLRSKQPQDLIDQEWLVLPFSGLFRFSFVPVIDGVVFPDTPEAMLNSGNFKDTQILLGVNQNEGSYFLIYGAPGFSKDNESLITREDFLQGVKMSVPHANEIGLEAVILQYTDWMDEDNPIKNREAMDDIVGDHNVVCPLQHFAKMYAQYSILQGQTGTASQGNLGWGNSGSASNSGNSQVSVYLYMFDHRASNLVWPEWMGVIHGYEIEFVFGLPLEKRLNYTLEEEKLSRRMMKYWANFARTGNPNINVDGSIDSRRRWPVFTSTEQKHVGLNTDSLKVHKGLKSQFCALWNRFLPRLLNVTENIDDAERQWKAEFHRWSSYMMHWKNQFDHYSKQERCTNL

With `COC(=O)C1=CO[C@@H](O[C@@H]2O[C@H](CO)[C@@H](O)[C@H](O)[C@H]2O)[C@@H]2[C@H](O)CN3CCc4c([nH]c5ccccc45)[C@@H]3C[C@H]12`, the IC50 in the assay on A549, in the assay on HepG2 and in the assay with MCF7 was over 80 µM throughout.

As to `C=C[C@H]1CN2CC[C@]3(C(=O)Nc4ccccc43)[C@@H]2C[C@@H]1/C(=C/OC)C(=O)O[C@@H]1O[C@H](CO)[C@@H](O)[C@H](O)[C@H]1O`, the IC50 with A549, with HepG2 and in the assay with MCF7 was over 80 µM throughout.

`C=C[C@H]1[C@H](O[C@@H]2O[C@H](CO)[C@@H](O)[C@H](O)[C@H]2O)OC=C2C(=O)N3CCc4c([nH]c5ccc(O)cc45)[C@@H]3C[C@H]21`: the IC50 in the assay on A549, in the assay with HepG2 and in the assay on MCF7 was over 80 µM each time.

Regarding `C=C[C@H]1[C@H](O[C@@H]2O[C@H](CO)[C@@H](O)[C@H](O)[C@H]2O[C@@H]2O[C@H](CO)[C@@H](O)[C@H](O)[C@H]2O)OC=C2C(=O)N3CC[C@@]4(C(=O)Nc5cc(O)ccc54)[C@H]3C[C@H]21`, the IC50 in the assay on A549, in the assay with HepG2 and in the assay with MCF7 was over 80 µM in each case.

`C=C[C@H]1[C@H](O[C@@H]2O[C@H](CO)[C@@H](O)[C@H](O)[C@H]2O[C@@H]2O[C@H](CO)[C@@H](O)[C@H](O)[C@H]2O)OC=C2C(=O)N3CC[C@]4(C(=O)Nc5cc(O)ccc54)[C@H]3C[C@H]21`: the IC50 in the assay on A549, with HepG2 and in the assay with MCF7 was over 80 µM each time.

Turning to `COC(=O)C1=CO[C@@H](O[C@@H]2O[C@H](CO)[C@@H](O)[C@H](O)[C@H]2O)[C@H]2[C@@H]1C[C@@H]1c3[nH]c4ccccc4c3CCN1[C@H]2CO`, the IC50 in the assay on A549, with HepG2 and in the assay with MCF7 was over 80 µM each time.

With `C=C[C@H]1[C@H](O[C@@H]2O[C@H](CO)[C@@H](O)[C@H](O)[C@H]2O)OC=C2C(=O)N3CC[C@@]4(C(=O)Nc5cc(O)ccc54)[C@H]3C[C@H]21`, the IC50 with A549, in the assay on HepG2 and with MCF7 was over 80 µM each time.

As for `C=CC1C(C[C@@H]2NCCc3c2[nH]c2ccccc32)C(C(=O)O)=CO[C@H]1O[C@@H]1O[C@H](CO)[C@@H](O)[C@H](O)[C@H]1O` (some centres undefined) [STRICTOSIDINIC ACID], the IC50 with A549, with HepG2 and in the assay with MCF7 was over 80 µM throughout.

`C=C[C@H]1[C@H](O[C@@H]2O[C@H](CO)[C@@H](O)[C@H](O)[C@H]2O)OC=C2C(=O)N3CCc4c([nH]c5cc(O)ccc45)[C@H]3C[C@H]21`: the concentration for half-maximal inhibition (IC50) in the assay on A549, with HepG2 and in the assay with MCF7 was over 80 µM in each case.

As for `C=C[C@H]1[C@H](O[C@@H]2O[C@H](CO)[C@@H](O)[C@H](O)[C@H]2O)OC=C(C(=O)OC)[C@H]1C[C@@H]1N[C@H](C(=O)OC)Cc2c1[nH]c1ccccc21`, the IC50 in the assay on A549, with HepG2 and in the assay with MCF7 was over 80 µM each time.

Take `C=C[C@H]1[C@H](O[C@@H]2O[C@H](CO)[C@@H](O)[C@H](O)[C@H]2O)OC=C2C(=O)N3CCc4c([nH]c5ccccc45)[C@H]3C[C@H]21`: the IC50 in the assay on A549, in the assay on HepG2 and in the assay on MCF7 was over 80 µM throughout.

On to `COC(=O)C1=CO[C@@H](O[C@@H]2O[C@H](CO)[C@@H](O)[C@H](O)[C@H]2O)[C@H]2[C@@H]1C[C@H]1c3[nH]c4ccccc4c3CCN1[C@H]2CO`, for which the concentration for half-maximal inhibition (IC50) in the assay with A549, in the assay on HepG2 and in the assay with MCF7 was over 80 µM in each case.

On to `C=C[C@H]1[C@H](O[C@@H]2O[C@H](CO)[C@@H](O)[C@H](O)[C@H]2O)OC=C2C(=O)N3Cc4c([nH]c5cc(O)ccc5c4=O)[C@H]3C[C@H]21`, for which the IC50 in the assay with A549, in the assay with HepG2 and with MCF7 was over 80 µM each time.

Take `C=C[C@H]1[C@H](O[C@@H]2O[C@H](CO)[C@@H](O)[C@H](O)[C@H]2O)OC=C(C(=O)OC)[C@H]1Cc1nc(C(=O)OC)cc2c1[nH]c1ccccc12`: the IC50 in the assay with A549, in the assay on HepG2 and in the assay with MCF7 was over 80 µM throughout.

With `C=C[C@H]1[C@H](O[C@@H]2O[C@H](CO)[C@@H](O)[C@H](O)[C@H]2O)OC=C2C(=O)N3CCc4c([nH]c5ccccc45)[C@@H]3C[C@H]21`, the IC50 with A549, in the assay with HepG2 and in the assay on MCF7 was over 80 µM in each case.

Turning to `C=C[C@H]1CN2CC[C@@]3(C(=O)Nc4ccccc43)[C@@H]2C[C@@H]1/C(=C/OC)C(=O)O[C@@H]1O[C@H](CO)[C@@H](O)[C@H](O)[C@H]1O`, the half-maximal inhibitory concentration (IC50) in the assay on A549, with HepG2 and in the assay on MCF7 was over 80 µM throughout.

With `O=C1C2=CO[C@@H](O[C@@H]3O[C@H](CO)[C@@H](O)[C@H](O)[C@H]3O[C@@H]3O[C@H](CO)[C@@H](O)[C@H](O)[C@H]3O)[C@H]([C@H](O)CO)[C@@H]2C[C@@H]2c3[nH]c4cc(O[C@@H]5O[C@H](CO)[C@@H](O)[C@H](O)[C@H]5O)ccc4c3CCN12`, the IC50 in the assay on A549, in the assay with HepG2 and with MCF7 was over 80 µM throughout.

On to `C=C[C@H]1[C@H](O[C@@H]2O[C@H](CO)[C@@H](O)[C@H](O)[C@H]2O)OC=C(C(=O)OC)[C@H]1C[C@@H]1N[C@H](C(=O)O)Cc2c1[nH]c1ccccc21`, for which the IC50 in the assay with A549, in the assay with HepG2 and in the assay with MCF7 was over 80 µM throughout.

Consider `C=C[C@H]1[C@H](O[C@@H]2O[C@H](CO)[C@@H](O)[C@H](O)[C@H]2O[C@@H]2O[C@H](CO)[C@@H](O)[C@H](O)[C@H]2O)OC=C2C(=O)N3Cc4c([nH]c5cc(O)ccc5c4=O)[C@H]3C[C@H]21`, for which the IC50 in the assay on A549, with HepG2 and in the assay on MCF7 was over 80 µM in each case.

With `COC(=O)C1=CO[C@@H](O[C@@H]2O[C@H](CO)[C@@H](O)[C@H](O)[C@H]2O)[C@@H]2[C@@H]3CN4CCc5c([nH]c6ccccc56)[C@]4(C[C@H]12)O3`, the 50% inhibitory concentration (IC50) in the assay on A549, with HepG2 and in the assay with MCF7 was over 80 µM throughout.

Turning to `C=C[C@H]1[C@H](O[C@@H]2O[C@H](CO)[C@@H](O)[C@H](O)[C@H]2O[C@@H]2O[C@H](CO)[C@@H](O)[C@H](O)[C@H]2O)OC=C2C(=O)N3CCc4c([nH]c5ccccc45)[C@H]3C[C@H]21`, the IC50 with A549, with HepG2 and in the assay on MCF7 was over 80 µM in each case.

Take `COc1cccc2c1C(=O)c1c(O)c3c(c(O)c1C2=O)C[C@@](O)(C(=O)CO)C[C@@H]3O[C@H]1C[C@H](N)[C@H](O)[C@H](C)O1` [DOXORUBICIN HYDROCHLORIDE]: the IC50 in the assay on A549, in the assay on HepG2 and in the assay on MCF7 was under 1 µM each time.

In the case of `C=C[C@H]1COC(=O)C2=CN3CCc4c([nH]c5cccc(O[C@@H]6O[C@H](CO)[C@@H](O)[C@H](O)[C@H]6O)c45)[C@@H]3C[C@H]21`, the IC50 at Acetylcholinesterase is 10.5 µM; in the assay with A549 it was over 80 µM; in the assay with HepG2, over 80 µM; in the assay on MCF7, over 80 µM.

`COC(=O)C1=CO[C@@H](O[C@@H]2O[C@H](CO)[C@@H](O)[C@H](O)[C@H]2O)[C@H]2[C@@H]1C[C@@H]1N(CC[C@]13C(=O)Nc1ccccc13)C[C@@H]2O`: the IC50 with A549, in the assay with HepG2 and in the assay with MCF7 was over 80 µM in each case.

On to `C=C[C@H]1[C@H](O[C@@H]2O[C@H](CO)[C@@H](O)[C@H](O)[C@H]2O[C@@H]2O[C@H](CO)[C@@H](O)[C@H](O)[C@H]2O)OC=C2C(=O)N3CCc4c([nH]c5cc(O[C@@H]6O[C@H](CO)[C@@H](O)[C@H](O)[C@H]6O)ccc45)[C@H]3C[C@H]21`, for which the IC50 with A549, with HepG2 and in the assay with MCF7 was over 80 µM each time.

Turning to `C=C[C@H]1[C@H](O[C@@H]2O[C@H](CO)[C@@H](O)[C@H](O)[C@H]2O)OC=C2C(=O)N3[C@H](C(=O)O)Cc4c([nH]c5ccccc45)[C@@H]3C[C@H]21`, the IC50 in the assay on A549, with HepG2 and in the assay with MCF7 was over 80 µM throughout.
